For the experiment, the system named is production of tumor necrosis factor (TNF) by monocytes activated with bacterial lipopolysaccharide (LPS). Nature of the experiment: Lipopolysaccharide-activated Monocyte TNF Production Assay. It counts as cell-based. As to conditions: Homo sapiens, TNF in culture supernatants by ELISA, read-out: IC50 (concentration of test compounds causing a 50% reduction in TNF production). As for the experimental part: Lipopolysaccharide-activated Monocyte TNF Production Assay
Test compounds were evaluated in vitro for the ability to inhibit the production of tumor necrosis factor (TNF) by monocytes activated with bacterial lipopolysaccharide (LPS). Fresh residual source leukocytes (a byproduct of plateletpheresis) were obtained from the local blood bank and peripheral blood mononuclear cells (PBMCs) were isolated by density gradient centrifugation on Ficol-Paque Plus (Pharmacia). PBMCs were suspended at 2×10^6/ml in DMEM supplemented to contain 2% FCS (10 mM), 0.3 mg/ml glutamate, 100 U/ml penicillin G and […] streptomycin sulfate (complete media). Cells were plated into Falcon flatbottom 96 well culture plates (200 μl/well) and cultured overnight at 37° C. and 6% CO2. Nonadherent cells were removed by washing with 200 μl/well of fresh medium. Wells containing adherent cells (˜70% monocytes) were replenished with 100 μl of fresh medium.
Preparation of Test Compound Stock Solutions
Test compounds were dissolved in […]. Compound stock solutions were prepared to an initial concentration of […]. Stocks were diluted initially to 20-200 μM in complete media. Nine two-fold serial dilutions of each compound were then prepared in complete medium.
Treatment of Cells with Test Compounds and Activation of TNF Production with Lipopolysaccharide
One hundred microliters of each test compound dilution were added to microtiter wells containing adherent monocytes and 100 μl complete medium. Monocytes were cultured with test compounds for 60 min at which time 25 μl of complete medium containing 30 ng/ml lipopolysaccharide from E. coli K532 were added to each well. Cells were cultured an additional 4 hrs. Culture supernatants were then removed and TNF present in the supernatants was quantified using an ELISA.
Flat bottom 96 well Coming High Binding ELISA plates were coated overnight (4° C.) with 150 μL/well of 3 μg/ml murine anti-human TNFa MAb (R&D Systems #MAB210). Wells were then blocked 1 h at room temperature with 200 μL/well of CaCl2-free ELISA buffer supplemented to contain 20 mg/ml BSA (standard ELISA buffer: […], 150 mM NaCl, 2 mM CaCl2, 0.15 mM thimerosal, pH 7.4). Plates were washed and replenished with 100 μl of test supernatants (diluted 1:3) or standards. Standards consisted of eleven 1.5-fold serial dilutions from a stock of 1 ng/ml recombinant human TNF (R&D Systems). Plates were incubated at room temperature for 1 h on orbital shaker (300 rpm), washed and replenished with 100 μl/well of 0.5 jig/ml goat anti-human TNFa (R&D systems #AB-210-NA) biotinylated at a 4:1 ratio. Plates were incubate for 40 min, washed and replenished with 100 μl/well of alkaline phosphatase-conjugated streptavidin (Jackson ImmunoResearch #016-050-084) at 0.02 μg/ml. Plates were incubated 30 min, washed and replenished with 200 μl well of 1 mg/ml of p-nitrophenyl phosphate. After 30 min, plates were read at 405 nm on a Vmax plate reader.
Standard curve data were fit to a second order polynomial and unknown TNF-a concentrations determined from their OD by solving this equation for concentration. TNF concentrations were then plotted Vs test compound concentration using a second order polynomial. This equation was then used to calculate the concentration of test compounds causing a 50% reduction in TNF production.

Each structure is given as a SMILES string.

For `NC(Cc1ccccc1)C(=O)Nc1ccc2c(-c3ccncc3)c(-c3ccc(F)cc3)[nH]c2n1` (racemic) [Compound 87, 6-(3′-phenyl-1′-oxo-2′-D,L-aminopropylamino)-3-(4-pyridyl)-2-(4-fluorophenyl)-7-aza-indole], the IC50 was less than 20 µM.
Next, `CC(CNc1ccc2c(-c3ccncc3)c(-c3ccc(F)cc3)[nH]c2n1)c1ccccc1` (racemic) [Compound 147, 6-(2′(R,S)-phenylpropylamino)-3-(4-pyridyl)-2-(4-fluorophenyl)-7-aza-indole]: less than 20 µM; `CCCCC(CC)CNc1ccc2c(-c3ccncc3)c(-c3ccc(F)cc3)[nH]c2n1` (racemic) [Compound 148, 6-(2′(R,S)-ethylhexylamino)-3-(4-pyridyl)-2-(4-fluorophenyl)-7-aza-indole]: less than 20 µM; `Fc1ccc(-c2[nH]c3ccccc3c2-c2ccncc2)cc1` [Compound 3, 3-(4-pyridyl)-2-(4-fluorophenyl)indole]: less than 20 µM.
As for `Nc1ccc2c(-c3ccncc3)c(-c3ccc(F)cc3)[nH]c2n1` [Compound 17, 6-Amino-3-(4-pyridyl)-2-(4-fluorophenyl)-7-aza-indole], the IC50 was less than 1 µM.
The result for `Nc1ccc2c(-c3ccc(F)cc3)c(-c3ccncc3)[nH]c2n1` [Compound 18, 6-Amino-3-(4-fluorophenyl)-2-(4-pyridyl)-7-aza-indole] reads less than 20 µM; that for `CC(C)(C)OC(=O)NCCCC(=O)Nc1ccc2c(-c3ccncc3)c(-c3ccc(F)cc3)[nH]c2n1` [Compound 21, 6-(4′-t-butoxycarbonylamino-1′-oxo-butylamino)-3-(4-pyridyl)-2-(4-fluorophenyl)-7-aza-indole], less than 20 µM; that for `NCCCC(=O)Nc1ccc2c(-c3ccncc3)c(-c3ccc(F)cc3)[nH]c2n1` [Compound 22, 6-(4′-amino-1′-oxo-butylamino)-3-(4-pyridyl)-2-(4-fluorophenyl)-7-aza-indole], less than 20 µM.
For the compound `Nc1nc2[nH]c(-c3ccc(F)cc3)c(-c3ccncc3)c2cc1Br` [Compound 27, 6-Amino-5-bromo-3-(4-pyridyl)-2-(4-fluorophenyl)-7-aza-indole], the IC50 was less than 20 µM.
The result for `Nc1nc2[nH]c(-c3ccc(F)cc3)c(-c3ccncc3)c2cc1F` [Compound 28, 6-Amino-5-fluoro-3-(4-pyridyl)-2-(4-fluorophenyl)-7-aza-indole] reads less than 20 µM; that for `CC(C)(C)OC(=O)NCC(=O)Nc1ccc2c(-c3ccncc3)c(-c3ccc(F)cc3)[nH]c2n1` [Compound 29, 6-(2′-t-butoxycarbonylamino-1′-oxo-ethylamino)-3-(4-pyridyl)-2-(4-fluorophenyl)-7-aza-indole], less than 20 µM.
Turning to `NC(=O)NCCC[C@H](N)C(=O)Nc1ccc2c(-c3ccncc3)c(-c3ccc(F)cc3)[nH]c2n1` [Compound 65, 6-(5′-ureido-1′-oxo-2′-aminopentylamino)-3-(4-pyridyl)-2-(4-fluorophenyl)-7-aza-indole], the IC50 was less than 20 µM.
For the compound `CC(C)(C)OC(=O)NCCCC[C@H](NC(=O)OC(C)(C)C)C(=O)Nc1ccc2c(-c3ccncc3)c(-c3ccc(F)cc3)[nH]c2n1` [Compound 66, 6-(6′-t-butoxycarbonylamino-1′-oxo-2′-t-butoxycarbonylaminohexylamino)-3-(4-pyridyl)-2-(4-fluorophenyl)-7-aza-indole], the IC50 was less than 20 µM.
Next, `NCCCC[C@H](N)C(=O)Nc1ccc2c(-c3ccncc3)c(-c3ccc(F)cc3)[nH]c2n1` [Compound 67, 6-(6′-amino-1′-oxo-2′-aminohexylamino)-3-(4-pyridyl)-2-(4-fluorophenyl)-7-aza-indole]: less than 20 µM.
Take `CC(C)(C)OC(=O)NCCC[C@H](NC(=O)OC(C)(C)C)C(=O)Nc1ccc2c(-c3ccncc3)c(-c3ccc(F)cc3)[nH]c2n1` [Compound 68, 6-(5′-t-butoxycarbonylamino-1′-oxo-2′-t-butoxycarbonylaminopentylamino)-3-(4-pyridyl)-2-(4-fluorophenyl)-7-aza-indole]: the IC50 was less than 20 µM.
`NCCC[C@H](N)C(=O)Nc1ccc2c(-c3ccncc3)c(-c3ccc(F)cc3)[nH]c2n1` [Compound 69, 6-(5′-amino-1′-oxo-2′-aminopentylamino)-3-(4-pyridyl)-2-(4-fluorophenyl)-7-aza-indole]: the IC50 was less than 20 µM.
The result for `N[C@@H](Cc1ccc(I)cc1)C(=O)Nc1ccc2c(-c3ccncc3)c(-c3ccc(F)cc3)[nH]c2n1` [Compound 71, 6-(3′-(4-iodophenyl)-1′-oxo-2′-aminopropylamino)-3-(4-pyridyl)-2-(4-fluorophenyl)-7-aza-indole] reads less than 1 µM; that for `CC(C)[C@H](N)C(=O)Nc1ccc2c(-c3ccncc3)c(-c3ccc(F)cc3)[nH]c2n1` [Compound 73, 6-(3′-Methyl-1′-oxo-2′-aminobutylamino)-3-(4-pyridyl)-2-(4-fluorophenyl)-7-aza-indole], less than 20 µM.
Take `CC(C)(C)C[C@H](N)C(=O)Nc1ccc2c(-c3ccncc3)c(-c3ccc(F)cc3)[nH]c2n1` [Compound 75, 6-(4′,4′-Dimethyl-1′-oxo-2′-aminopentylamino)-3-(4-pyridyl)-2-(4-fluorophenyl)-7-aza-indole]: the IC50 is less than 20 µM.
Take `NCCCCC(=O)Nc1ccc2c(-c3ccncc3)c(-c3ccc(F)cc3)[nH]c2n1` [Compound 77, 6-(5′-amino-1′-oxo-pentylamino)-3-(4-pyridyl)-2-(4-fluorophenyl)-7-aza-indole]: the IC50 is less than 20 µM.
With `NCCCCCC(=O)Nc1ccc2c(-c3ccncc3)c(-c3ccc(F)cc3)[nH]c2n1` [Compound 79, 6-(6′-amino-1′-oxo-hexylamino)-3-(4-pyridyl)-2-(4-fluorophenyl)-7-aza-indole], the IC50 was less than 20 µM.
For `N[C@@H](CC1CCCCC1)C(=O)Nc1ccc2c(-c3ccncc3)c(-c3ccc(F)cc3)[nH]c2n1` [Compound 81, 6-(3′-cyclohexyl-1′-oxo-2′-aminopropylamino)-3-(4-pyridyl)-2-(4-fluorophenyl)-7-aza-indole], the IC50 was less than 20 µM.
As for `N[C@@H](CCC(=O)O)C(=O)Nc1ccc2c(-c3ccncc3)c(-c3ccc(F)cc3)[nH]c2n1` [Compound 83, 6-(4′-carboxy-1′-oxo-2′-aminobutylamino)-3-(4-pyridyl)-2-(4-fluorophenyl)-7-aza-indole], the IC50 is less than 20 µM.
As for `CC(O)[C@H](N)C(=O)Nc1ccc2c(-c3ccncc3)c(-c3ccc(F)cc3)[nH]c2n1` (some centres unmarked) [Compound 85, 6-(3′-hydroxy-1′-oxo-2′-aminobutylamino)-3-(4-pyridyl)-2-(4-fluorophenyl)-7-aza-indole], the IC50 was less than 20 µM.
The result for `N[C@@H](Cc1ccc(O)cc1)C(=O)Nc1ccc2c(-c3ccncc3)c(-c3ccc(F)cc3)[nH]c2n1` [Compound 89, 6-(3′-(4-hydroxyphenyl)-1′-oxo-2′-aminopropylamino)-3-(4-pyridyl)-2-(4-fluorophenyl)-7-aza-indole] reads less than 1 µM; that for `NCCC(=O)Nc1ccc2c(-c3ccncc3)c(-c3ccc(F)cc3)[nH]c2n1` [Compound 91, 6-(3′-amino-1′-oxo-propylamino)-3-(4-pyridyl)-2-(4-fluorophenyl)-7-aza-indole], less than 20 µM.
As for `NCC(=O)Nc1ccc2c(-c3ccncc3)c(-c3ccc(F)cc3)[nH]c2n1` [Compound 92, 6-(2′-amino-1′-oxo-ethylamino)-3-(4-pyridyl)-2-(4-fluorophenyl)-7-aza-indole], the IC50 is less than 1 µM.
As to `CS(=O)(=O)Nc1ccc2c(-c3ccncc3)c(-c3ccc(F)cc3)[nH]c2n1` [Compound 93, 6-(methylsulfonylamino)-3-(4-pyridyl)-2-(4-fluorophenyl)-7-aza-indole], the IC50 is less than 20 µM.
In the case of `CC(=O)Nc1ccc2c(-c3ccncc3)c(-c3ccc(F)cc3)[nH]c2n1` [Compound 94, 6-(1′-oxo-ethylamino)-3-(4-pyridyl)-2-(4-fluorophenyl)-7-aza-indole], the IC50 is less than 20 µM.

The values are drawn from patent US6605634B2 (Amgen, Inc., priority 1996, dated 2003).
